From paper PMC11481179, “Development and Application of Reversible and Irreversible Covalent Probes for Human and Mouse Cathepsin‐K Activity Detection, Revealing Nuclear Activity” (Advanced Science, 2024)

Assays:
[1] = system: U-2 OS cells; experiment: Cell viability assay (methylene blue); assay type: cell-based, human; settings: 48 h incubation
Description: (§1) U-2 OS, U-87 MG, and enriched monocyte cells were grown at 370 C with 5% of CO2 in the
(§2) respective medium as described previously. Cells were seeded (1500 cells/well in 96 wells
(§3) plate) one day before the incubation with indicated probe or inhibitor at various concentrations.
(§4) After 48 h cells were fixed, and viability was measured by quantitative colorimetric assay using
(§5) methylene blue according to the procedure reported by Ben-Bassat et al. The data were
(§6) expressed as a percentage of control; data represent the mean of 2 experiments with triplicates
(§7) for each treatment (± standard deviation).
(§8) Fluorescent imaging of CTSK activity in lung tissue: Freshly resected human lung cancer and
(§9) normal lung tissues or mouse normal lung and primary lung cancer were embedded in OCT,
(§10) frozen in liquid nitrogen, and kept at - 80° C. Tissues were sectioned into 10 μm thick slices
(§11) using a cryostat (Leica). The slides were defrosted and washed with 1X PBS. Then the slides
(§12) were pretreated with DMSO or GD30 (5 µM) in buffer acetate for 1 h at 37° C. Afterward,
(§13) GD32 (0.75uM) or DMSO in buffer acetate were applied to the slides for 4 h at 37° C. Three
(§14) short washes with 1X PBS were done and the slides were left in 1X PBS for overnight
(§15) incubation at 4° C. The next day, slides were mounted with DAPI-Fluoromount-G® before
(§16) visualization by confocal microscopy. Olympus FV10i was used for human samples, whereas
(§17) Zeiss was used for mouse samples.
(§18) Details of the synthesis of the compounds
(§19) Synthesis of Compound (2)

[2] = system: U-87 MG cells; experiment: Cell viability assay (methylene blue); assay type: cell-based, human; settings: 48 h incubation
Description: as §1, §2, §3, §4, §5, §6, §7, §8, §9, §10, §11, §12, §13, §14, §15, §16, §17, §18, §19

[3] = biological target: CTSS (Homo sapiens, UniProt P25774); experiment: In vitro kinetic evaluation of cathepsin inhibition, fluorescent substrate Z-FR-AMC; assay type: biochemical; settings: for mode of inhibition: CTSS; for times less potent toward CTSS compared to CTSK: selectivity CTSK over CTSS
Description: (§20) used for TLC. Phosphate Buffer Saline (PBS) was purchased from Biological Industries (pH = […]
(§21) 7.4) and was used as a buffer system in all experiments if not indicated otherwise. […]
Recombinant human CTSB, CTSK, CTSL, and CTSS were supplied by B. Turk (J.
Stefan Institute).[1] […]
(§22) In vitro kinetic evaluation of labeling recombinant cathepsins:
(§23) Reactions were monitored for 30 min at 37° C in 96-well black flat-bottom microplates […]
(§24) (Greiner, Germany) using Tecan INFINITE M1000 pro plate reader (Tecan, Switzerland), […]
(§25) substrates Z-RR-AMC (CTSL) or Z-FR-AMC (CTSS, CTSB and CTSK), and excitation and […]
(§26) emission wavelengths of 370 and 460 nm, respectively. Cathepsin concentrations in the assay were 0.4 nM (CTSK) or 5 nM (CTSS, CTSB, and CTSL). The buffer was 100 mM Na2HPO4/NaH2PO4, 50 mM NaCl, 5 mM DTT, 0,1% Peg-6000, pH 6. For irreversible inhibitors, reaction data were fitted to the one-phase association formula in GraphPad Prism 9 software: Y=Y0 + (Plateau-Y0)*(1-exp(-K*X)) where in this case Y0 and Y represent fluorescence signal at times 0 and t, respectively, K represent the observed reaction rate kobs and X the inhibitor concentration. Inactivation rates at each inhibitor concentration were obtained by subtracting the inactivation observed in the control sample: kobs – kctrl. The maximal rate of inactivation (kinact) was obtained as the asymptote from equation Y = kinact*X/(Kiapp + X) where X is inhibitor concentration, Y is the observed inactivation rate for each X, and Kiapp is the apparent inhibition constant. Ki values were calculated from IC50 or from Kiapp using formulas Ki = Kiapp / (1 + Km/S) and IC50 = E0/2 + Kiapp, where Km stands for Michalis-Menten constant, S for substrate concentration and E0 for cathepsin concentration.
(§27) The highest inhibitor concentrations in the assay were 50 µM. Measurements were performed in several independent duplicates. Average values are presented with standard deviations. […]

[4] = biological target: CTSB (Homo sapiens, UniProt P07858); experiment: as above; assay type: biochemical; settings: for mode of inhibition: CTSB; for Ki: CTSB 5 nM, pH 6, 37 °C
Description: as §20, §21
Recombinant human CTSB, CTSK, CTSL, and CTSS were supplied by B. Turk (J. […]
as §22, §23, §24, §25, §26, §27
µM) were pretreated with different concentrations of probes (GD32, GD36, GD37, or GD42)

CTSS, sequence (P25774 115-331): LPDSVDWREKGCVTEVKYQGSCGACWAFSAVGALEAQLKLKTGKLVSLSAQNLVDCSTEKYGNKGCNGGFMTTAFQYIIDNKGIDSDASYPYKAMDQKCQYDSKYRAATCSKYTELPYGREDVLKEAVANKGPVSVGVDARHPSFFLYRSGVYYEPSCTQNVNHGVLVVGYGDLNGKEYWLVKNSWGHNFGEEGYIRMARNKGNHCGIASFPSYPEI

mode of inhibition [3]	Ki ([3]; CTSS 5 nM, pH 6, 37 °C)	kinact ([3]; CTSS 5 nM, pH 6, 37 °C)	kinact/Ki ([3]; CTSS 5 nM, pH 6, 37 °C)	times less potent toward CTSS compared to CTSK [3]	mode of inhibition [4]	Ki [4]	Compound	cytotoxicity [1]	cytotoxicity [2]
							C#CCNC(=O)[C@H](CC(C)C)N[C@@H](c1ccc(-c2ccc(S(=O)(=O)CCNC(=O)OC(C)(C)C)cc2)cc1)C(F)(F)F [GD30]	No toxicity	No toxicity
Irreversible	0.98 µM	0.0022 ± 0.00009 s⁻¹	2220 ± 300 M⁻¹ s⁻¹	115 times	Reversible	9.4 µM	C#CCNC(=O)[C@H](CC(C)C)N[C@@H](c1ccc(-c2ccc(S(=O)(=O)CCNC(=O)CCCCC[N+]3=C(/C=C/C=C/C=C4/N(C)c5ccc(S(=O)(=O)O)cc5C4(C)C)C(C)(C)c4cc(S(=O)(=O)O)ccc43)cc2)cc1)C(F)(F)F [GD32]	No toxicity	No toxicity
Reversible	0.06 µM			150 times	Reversible	5.9 µM	CC(C)C[C@H](N[C@@H](c1ccc(-c2ccc(S(=O)(=O)CCNC(=O)CCCCC[N+]3=C(/C=C/C=C/C=C4/N(C)c5ccc(S(=O)(=O)O)cc5C4(C)C)C(C)(C)c4cc(S(=O)(=O)O)ccc43)cc2)cc1)C(F)(F)F)C(=O)NC1(C#N)CC1 [GD37]		
